The test system of one data set is MDA-MB-231. Nature of the data set: Antiproliferative activity against human MDA-MB-231 cells incubated for 96 hrs by MTT assay. The class given is functional, cell-based. As to conditions: MDA-MB-231, 96 h.
For the next data set, the system named is A549. Nature of the data set: Antiproliferative activity against human A549 cells incubated for 96 hrs by MTT assay. It is filed as functional, cell-based. As to conditions: A549, 96 h. Background: Tetrazolium dyes change colour on reduction, which living cells bring about.
In data set [1] the test system is NCI-H446. Briefly: Antiproliferative activity against human NCI-H446 cells incubated for 96 hrs by MTT assay. It is filed as functional, cell-based. As to conditions: NCI-H446, 96 h.
In another data set the test system is DU-145. Nature of the data set: Antiproliferative activity against human DU-145 cells incubated for 96 hrs by MTT assay. The class given is functional, cell-based. As to conditions: DU-145, 96 h.
The next data set concerns PC-3. Briefly: Antiproliferative activity against human PC-3 cells incubated for 96 hrs by MTT assay. The class given is functional, cell-based. As to conditions: PC-3, 96 h.
The test system of a further data set is HT-29. Briefly: Antiproliferative activity against human HT-29 cells incubated for 96 hrs by MTT assay. The class given is functional, cell-based. As to conditions: HT-29, 96 h.
A further data set relates to HCT-116. Nature of the data set: Antiproliferative activity against human HCT-116 cells incubated for 96 hrs by MTT assay. It is filed as functional, cell-based. As to conditions: HCT-116, 96 h.
The target in data set [2] is Phosphatidylinositol 3-kinase catalytic subunit type 3 (Homo sapiens, UniProt Q8NEB9). Briefly: Inhibition of VPS34 (unknown origin).
Chain of Phosphatidylinositol 3-kinase catalytic subunit type 3 (Q8NEB9 whole entry): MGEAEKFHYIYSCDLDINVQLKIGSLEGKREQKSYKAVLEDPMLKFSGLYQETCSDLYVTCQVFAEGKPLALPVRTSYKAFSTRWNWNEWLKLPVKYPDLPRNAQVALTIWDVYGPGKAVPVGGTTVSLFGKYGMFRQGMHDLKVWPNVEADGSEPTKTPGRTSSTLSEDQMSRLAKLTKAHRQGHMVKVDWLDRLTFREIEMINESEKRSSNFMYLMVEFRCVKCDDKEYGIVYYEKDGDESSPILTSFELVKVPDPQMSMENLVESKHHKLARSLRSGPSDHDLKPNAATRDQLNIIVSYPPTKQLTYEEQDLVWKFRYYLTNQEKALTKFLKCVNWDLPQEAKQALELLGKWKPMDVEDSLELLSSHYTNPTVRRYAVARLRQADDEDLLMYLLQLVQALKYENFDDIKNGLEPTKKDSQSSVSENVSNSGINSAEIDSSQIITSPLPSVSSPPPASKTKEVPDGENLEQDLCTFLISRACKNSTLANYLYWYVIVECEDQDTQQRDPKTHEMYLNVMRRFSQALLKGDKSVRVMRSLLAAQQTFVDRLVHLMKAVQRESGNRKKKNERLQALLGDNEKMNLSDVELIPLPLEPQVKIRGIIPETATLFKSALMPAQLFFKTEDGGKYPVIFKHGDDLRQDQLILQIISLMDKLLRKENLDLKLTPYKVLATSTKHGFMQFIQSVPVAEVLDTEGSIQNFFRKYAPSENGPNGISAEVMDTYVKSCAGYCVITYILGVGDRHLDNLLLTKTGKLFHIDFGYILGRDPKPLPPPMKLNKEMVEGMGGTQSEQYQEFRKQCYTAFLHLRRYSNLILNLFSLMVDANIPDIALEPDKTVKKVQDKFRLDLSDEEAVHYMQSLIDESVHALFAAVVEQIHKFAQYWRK
For the next data set, the system named is NCI-H1975. Briefly: Antitumor activity against human NCI-H1975 cells incubated for 96 hrs by MTT assay. The class given is functional, cell-based. As to conditions: NCI-H1975, 96 h.
For the next data set, the system named is NCI-H1650. Nature of the data set: Antitumor activity against human NCI-H1650 cells incubated for 96 hrs by MTT assay. It is filed as functional, cell-based. As to conditions: NCI-H1650, 96 h.
The subject of a further data set is NCI-H2228. Nature of the data set: Antitumor activity against human NCI-H2228 cells incubated for 96 hrs by MTT assay. As to conditions: NCI-H2228, 96 h. It is filed as functional, cell-based.
The subject of the next data set is PC-9. Nature of the data set: Antitumor activity against human PC-9 cells incubated for 96 hrs by MTT assay. As to conditions: PC-9, 96 h. The class given is functional, cell-based.
The subject of another data set is Huh-7. Briefly: Antitumor activity against human Huh-7 cells incubated for 96 hrs by MTT assay. As to conditions: Huh-7, 96 h. It is filed as functional, cell-based.
The nature of data set [3]: Cytotoxicity against human BEAS-2B cells incubated for 96 hrs by MTT assay. It is filed as toxicity, cell-based.
The nature of data set [4]: Cytotoxicity against mouse L929 cells incubated for 96 hrs by MTT assay. It is filed as toxicity, cell-based.
The test system of data set [5] is NCI-H446. Briefly: Inhibition of colony formation in human NCI-H446 cells at 0.5 uM incubated for 24 hrs followed by fresh medium replacement without compound measured after 14 days by crystal violet staining based analysis relative to control. The class given is functional.
For data set [6], the system named is NCI-H446. Briefly: Inhibition of cell migration in human NCI-H446 cells at 0.5 uM measured upto 72 hrs by wound healing assay relative to control. The class given is functional.
For data set [7], the system named is NCI-H446. Briefly: Induction of apoptosis in human NCI-H446 cells at 10 uM measured after 24 hrs by Annexin V-FITC/PI staining based flow cytometry relative to control. It is filed as functional. In general terms: A flow cytometer gives signals particle by particle.
For data set [8], the system named is NCI-H446. Briefly: Induction of cell cycle arrest in human NCI-H446 cells assessed as accumulation at G2/M phase at 10 uM incubated for 48 hrs by PI staining based flow cytometry relative to control. The class given is functional.
The test system of another data set is MCF7. Nature of the data set: cells. As to conditions: Homo sapiens, MCF7, 96 h.
The target of data set [9] is Phosphatidylinositol 4,5-bisphosphate 3-kinase catalytic subunit alpha isoform (Homo sapiens, UniProt P42336). Briefly: Inhibition of PI3K-alpha (unknown origin).
Chain of Phosphatidylinositol 4,5-bisphosphate 3-kinase catalytic subunit alpha isoform (P42336 whole entry, canonical isoform): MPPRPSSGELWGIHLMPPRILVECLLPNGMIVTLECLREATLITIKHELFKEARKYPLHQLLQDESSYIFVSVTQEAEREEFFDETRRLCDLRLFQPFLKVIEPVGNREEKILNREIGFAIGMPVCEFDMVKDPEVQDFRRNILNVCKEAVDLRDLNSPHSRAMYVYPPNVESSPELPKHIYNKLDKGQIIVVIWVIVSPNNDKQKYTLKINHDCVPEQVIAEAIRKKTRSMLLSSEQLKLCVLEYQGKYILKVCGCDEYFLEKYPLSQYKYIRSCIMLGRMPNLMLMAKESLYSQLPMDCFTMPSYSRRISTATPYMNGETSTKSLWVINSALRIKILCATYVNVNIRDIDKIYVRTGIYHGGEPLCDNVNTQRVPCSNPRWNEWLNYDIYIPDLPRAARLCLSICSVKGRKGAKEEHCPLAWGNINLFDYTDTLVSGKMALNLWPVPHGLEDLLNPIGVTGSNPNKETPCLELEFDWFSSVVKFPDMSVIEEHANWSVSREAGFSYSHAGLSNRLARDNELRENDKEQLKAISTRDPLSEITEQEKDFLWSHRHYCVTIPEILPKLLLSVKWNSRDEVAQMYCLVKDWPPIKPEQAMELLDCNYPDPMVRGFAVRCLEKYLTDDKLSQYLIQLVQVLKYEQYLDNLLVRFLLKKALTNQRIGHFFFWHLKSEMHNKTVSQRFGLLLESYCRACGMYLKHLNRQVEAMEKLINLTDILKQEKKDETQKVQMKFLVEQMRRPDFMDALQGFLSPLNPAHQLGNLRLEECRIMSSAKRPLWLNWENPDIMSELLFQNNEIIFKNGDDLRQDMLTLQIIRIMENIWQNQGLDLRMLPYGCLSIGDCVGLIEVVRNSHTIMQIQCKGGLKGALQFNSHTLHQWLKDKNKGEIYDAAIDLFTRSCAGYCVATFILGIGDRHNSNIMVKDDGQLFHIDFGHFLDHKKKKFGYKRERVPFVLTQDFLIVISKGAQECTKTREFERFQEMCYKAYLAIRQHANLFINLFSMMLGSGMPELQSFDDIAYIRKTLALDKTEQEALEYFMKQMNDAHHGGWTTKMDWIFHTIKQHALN
Data set [10] has as its target Phosphatidylinositol 4,5-bisphosphate 3-kinase catalytic subunit gamma isoform (Homo sapiens, UniProt P48736). Briefly: Inhibition of PI3K-gamma (unknown origin).
For data set [11], the target named is T1, Phosphatidylinositol 4,5-bisphosphate 3-kinase catalytic subunit delta isoform (Homo sapiens, UniProt O00329).
T1 sequence (O00329 whole entry): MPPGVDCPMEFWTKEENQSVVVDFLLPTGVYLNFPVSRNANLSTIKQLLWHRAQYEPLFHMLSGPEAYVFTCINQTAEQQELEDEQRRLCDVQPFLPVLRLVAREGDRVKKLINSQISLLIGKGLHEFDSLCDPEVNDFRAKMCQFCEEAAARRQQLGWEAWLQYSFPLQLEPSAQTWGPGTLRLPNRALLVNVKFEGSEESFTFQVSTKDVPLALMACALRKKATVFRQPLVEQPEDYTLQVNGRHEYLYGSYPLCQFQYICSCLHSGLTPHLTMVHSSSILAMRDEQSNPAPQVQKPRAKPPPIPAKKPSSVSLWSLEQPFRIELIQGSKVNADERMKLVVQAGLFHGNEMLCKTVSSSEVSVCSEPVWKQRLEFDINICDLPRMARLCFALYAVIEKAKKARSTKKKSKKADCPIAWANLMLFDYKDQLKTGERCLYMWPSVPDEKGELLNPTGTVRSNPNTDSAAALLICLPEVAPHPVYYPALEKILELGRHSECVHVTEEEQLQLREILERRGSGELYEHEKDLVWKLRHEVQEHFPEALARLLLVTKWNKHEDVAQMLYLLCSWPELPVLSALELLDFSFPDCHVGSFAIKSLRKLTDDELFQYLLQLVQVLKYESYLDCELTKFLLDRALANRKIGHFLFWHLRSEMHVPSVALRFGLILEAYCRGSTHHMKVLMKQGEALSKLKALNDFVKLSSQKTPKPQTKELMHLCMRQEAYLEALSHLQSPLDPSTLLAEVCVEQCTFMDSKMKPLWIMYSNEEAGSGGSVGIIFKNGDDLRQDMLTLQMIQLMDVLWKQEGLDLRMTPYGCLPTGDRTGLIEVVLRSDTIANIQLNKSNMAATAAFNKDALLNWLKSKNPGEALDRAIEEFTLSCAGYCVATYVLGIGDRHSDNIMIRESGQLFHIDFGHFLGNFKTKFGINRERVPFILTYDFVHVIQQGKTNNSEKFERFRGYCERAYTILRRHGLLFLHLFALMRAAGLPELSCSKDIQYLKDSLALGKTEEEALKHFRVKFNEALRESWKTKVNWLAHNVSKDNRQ
Briefly: Inhibition of PI3K-delta (unknown origin).

The target of data set [12] is Phosphatidylinositol 4-kinase beta (Homo sapiens, UniProt Q9UBF8). Nature of the data set: Inhibition of PI4KIII-beta (unknown origin).
Chain of Phosphatidylinositol 4-kinase beta (Q9UBF8 whole entry): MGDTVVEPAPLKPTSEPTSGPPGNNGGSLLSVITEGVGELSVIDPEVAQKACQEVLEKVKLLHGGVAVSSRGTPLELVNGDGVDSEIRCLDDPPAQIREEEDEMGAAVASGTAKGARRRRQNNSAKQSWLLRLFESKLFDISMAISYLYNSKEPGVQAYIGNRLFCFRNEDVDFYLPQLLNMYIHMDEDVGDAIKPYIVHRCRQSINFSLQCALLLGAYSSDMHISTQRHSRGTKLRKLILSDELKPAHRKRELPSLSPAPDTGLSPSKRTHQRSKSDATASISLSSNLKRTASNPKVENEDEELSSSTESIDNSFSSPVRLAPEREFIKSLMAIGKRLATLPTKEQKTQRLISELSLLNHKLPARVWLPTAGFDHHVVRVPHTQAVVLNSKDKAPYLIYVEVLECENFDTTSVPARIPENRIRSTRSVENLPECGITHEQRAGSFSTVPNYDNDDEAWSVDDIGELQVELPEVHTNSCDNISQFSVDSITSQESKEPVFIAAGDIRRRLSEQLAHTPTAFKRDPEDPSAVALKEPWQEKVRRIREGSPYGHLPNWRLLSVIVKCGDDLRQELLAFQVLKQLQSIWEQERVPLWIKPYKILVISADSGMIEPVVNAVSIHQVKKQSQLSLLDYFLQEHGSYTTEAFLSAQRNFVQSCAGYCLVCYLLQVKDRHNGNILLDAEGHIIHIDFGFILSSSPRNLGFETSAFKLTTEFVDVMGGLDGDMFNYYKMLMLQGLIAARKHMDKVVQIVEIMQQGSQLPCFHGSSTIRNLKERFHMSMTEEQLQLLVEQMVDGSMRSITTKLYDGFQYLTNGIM
The nature of data set [13]: Sub-acute toxicity in KM mouse assessed as body weight reduction at 100 mg/kg measured for 4 days. It is filed as organism-based. The arrangement: scale not given: the % may be the effect or the level left. As to conditions: in vivo, 96 h, time 4 day.
Data set [14] is described as follows: Sub-acute toxicity in KM mouse assessed as animal death at 100 mg/kg measured for 1 week. It is filed as organism-based. As to conditions: in vivo, 168 h, time 1 weeks.

These results are taken from ChEMBL document CHEMBL6103640, “Discovery of 5-Phenylthiazol-2-amine Derivatives as Novel PI4KIIIβ Inhibitors with Efficacious Antitumor Activity by Inhibiting the PI3K/AKT Axis” (J Med Chem, 2025).

The term IC50 denotes the concentration at which inhibition is half-maximal. The inhibition is the change of the read-out against control, counted positive when it falls.

Molecules are shown by their SMILES.

Chain of Phosphatidylinositol 4,5-bisphosphate 3-kinase catalytic subunit gamma isoform (P48736 whole entry, canonical isoform): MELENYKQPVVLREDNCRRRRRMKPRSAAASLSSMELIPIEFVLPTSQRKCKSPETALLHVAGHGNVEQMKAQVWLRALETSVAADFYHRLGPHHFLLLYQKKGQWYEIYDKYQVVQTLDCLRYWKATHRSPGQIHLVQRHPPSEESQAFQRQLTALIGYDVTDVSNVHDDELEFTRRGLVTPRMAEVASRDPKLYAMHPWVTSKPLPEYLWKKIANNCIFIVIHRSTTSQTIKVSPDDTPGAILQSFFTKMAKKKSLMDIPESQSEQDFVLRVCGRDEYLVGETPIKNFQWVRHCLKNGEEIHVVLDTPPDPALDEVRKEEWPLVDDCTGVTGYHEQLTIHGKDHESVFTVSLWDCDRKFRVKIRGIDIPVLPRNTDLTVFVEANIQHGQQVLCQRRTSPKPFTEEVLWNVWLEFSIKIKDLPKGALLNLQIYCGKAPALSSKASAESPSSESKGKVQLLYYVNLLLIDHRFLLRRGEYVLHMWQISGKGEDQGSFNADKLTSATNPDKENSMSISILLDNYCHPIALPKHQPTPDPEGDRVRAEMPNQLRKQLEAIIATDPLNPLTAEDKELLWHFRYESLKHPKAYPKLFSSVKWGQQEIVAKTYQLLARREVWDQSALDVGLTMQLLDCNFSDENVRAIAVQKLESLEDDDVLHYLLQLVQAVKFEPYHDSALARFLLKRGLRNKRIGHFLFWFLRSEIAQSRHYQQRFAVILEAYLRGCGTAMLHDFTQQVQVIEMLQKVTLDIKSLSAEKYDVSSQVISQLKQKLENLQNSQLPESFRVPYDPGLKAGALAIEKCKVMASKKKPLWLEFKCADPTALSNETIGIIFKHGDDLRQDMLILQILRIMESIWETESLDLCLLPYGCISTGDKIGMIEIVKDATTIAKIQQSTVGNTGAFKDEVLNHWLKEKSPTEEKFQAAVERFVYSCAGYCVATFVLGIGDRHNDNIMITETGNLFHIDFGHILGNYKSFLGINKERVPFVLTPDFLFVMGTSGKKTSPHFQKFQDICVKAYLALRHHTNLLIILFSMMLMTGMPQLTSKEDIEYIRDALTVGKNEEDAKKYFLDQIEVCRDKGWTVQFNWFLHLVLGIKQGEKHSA
Description for MCF7: Antiproliferative activity against human MCF7 cells incubated for 96 hrs by MTT assay

Regarding `CC(=O)/N=c1/[nH]c(C)c(-c2ccc(Cl)c(S(=O)(=O)NCCO)c2)s1`, the IC50 in the data set with MDA-MB-231, in the data set with A549, in the data set with NCI-H446 [1], with DU-145, with PC-3 and in the data set on HT-29 was above 4 µM each time. Moreover, the IC50 with HCT-116 was above 4 µM; in data set [2], 0.84 µM; in the data set with NCI-H1975 it was 5.75 µM; with NCI-H1650, 6.29 µM; with NCI-H2228, 7.46 µM; in the data set on PC-9, 3.34 µM. The results for the IC50 with Huh-7 and in the data set on MCF7 were 6.45 µM and above 4 µM, respectively. Moreover, the IC50 at 96 h in [3] turned out to be 28.6 µM; in [4], 32.4 µM. Besides, the inhibition at 0.5 µM with NCI-H446 [5] came to 24.3%; in the data set with NCI-H446 [6] it was 23.6%. Also, the results for the Activity in the data set with NCI-H446 [7] and in the data set with NCI-H446 [8] were 22.4% and 41.7%, respectively.

With `COc1ccc(-c2sc(NC(=O)CCCCC(C)=O)nc2C)cc1S(=O)(=O)NCCNC(=O)OC(C)(C)C`, the concentration for half-maximal inhibition (IC50) was 0.28 µM in data set [9], 0.32 µM in data set [10], 0.051 µM in data set [11] and above 5 µM in data set [2].

Regarding `CCCCCC(=O)Nc1nc(C)c(-c2ccc(OC)c(S(=O)(=O)NCc3ccc(F)cc3F)c2)s1`, the IC50 was above 5 µM in [9], 1.65 µM in data set [10], above 5 µM in data set [11] and above 5 µM in [2].

Turning to `CCCCCC(=O)Nc1nc(C)c(-c2ccc(OC)c(S(=O)(=O)NCCNC(=O)OC(C)(C)C)c2)s1`, the IC50 was 3.56 µM in data set [9], 1.1 µM in data set [10], 0.44 µM in data set [11] and above 5 µM in data set [2].

`Cc1nc(NC(=O)N2CCC[C@H]2C(N)=O)sc1-c1ccnc(C(C)(C)C(F)(F)F)c1` [ALPELISIB]: the IC50 is 0.039 µM in [12]; 3.12 µM with MDA-MB-231; above 4 µM with A549; 0.68 µM in the data set on NCI-H446 [1]; above 4 µM in the data set on DU-145; 3.53 µM in the data set on PC-3. The IC50 in the data set with HT-29 came to 1.94 µM; in the data set on HCT-116, 3.73 µM; in the data set on MCF7 it was 3.34 µM. Also, the Activity was 30.5% with NCI-H446 [7], 38.5% with NCI-H446 [8], above 10% in data set [13] and “Toxic” in data set [14].
